Assay results taken from ChEMBL document CHEMBL5321279 (J Med Chem, 2023).
The source made the active and inactive calls. The calls are words filed in the database; no cut-off is given here.

What was measured:
[1] = (§1) Cytotoxicity against human PC-3 cells assessed as reduction in cell growth measured after 5 days by CellTiter-Glo assay; format: toxicity, cell-based; conditions: PC-3 cells, time 5 day
[2] = (§2) Cytotoxicity against human HepG2 cells assessed as reduction in cell growth measured after 5 days by CellTiter-Glo assay; format: toxicity, cell-based; conditions: HepG2 cells, time 5 day
[3] = Cmax in African green monkey infected with SARS-CoV-2 assessed as prodrug conversion by measuring (2R,3R,4S,5R)-2-(4-aminopyrrolo[2,1-f][1,2,4]triazin-7-yl)-3,4-dihydroxy-5-(hydroxymethyl)tetrahydrofuran-2-carbonitrile at 10 mg/kg, iv qd administered for day 1 followed by 5 mg/kg administration measured after 6 days by LC-MS/MS analysis; format: ADME, organism-based, Severe acute respiratory syndrome coronavirus 2; design: dose 10 mg/kg, time 6 day, route iv; conditions: in vivo
[4] = Prodrug conversion in SARS-CoV-2 infected in African green monkey assessed as (2R,3R,4S,5R)-2-(4-aminopyrrolo[2,1-f][1,2,4]triazin-7-yl)-3,4-dihydroxy-5-(hydroxymethyl)tetrahydrofuran-2-carbonitrile mediated log10 reduction of genomic RNA at 10 mg/kg, iv qd administered for day 1 followed by 5 mg/kg administration measured after 6 days by RT-qPCR analysis; format: ADME, organism-based, Severe acute respiratory syndrome coronavirus 2; conditions: in vivo, time 6 day
[5] = AUC(0 to 24 hrs) in rat at 1 mg/kg, iv measured upto 24 hrs by LC-MS/MS analysis; format: ADME, organism-based; design: dose 1 mg/kg, time < 24 hrs, route iv; conditions: in vivo
[6] = AUC(0 to 24 hrs) in cynomolgus monkey at 5 mg/kg, po measured upto 24 hrs by LC-MS/MS analysis; format: ADME, organism-based, Macaca fascicularis; design: dose 5 mg/kg, time < 24 hrs, route po; conditions: in vivo
[7] = Aqueous stability of the compound assessed as compound remaining at pH 2 measured at 24 hrs by UPLC analysis; format: physicochemical; conditions: aqueous solution, read-out: Stability
[8] = Aqueous stability of the compound assessed as compound remaining at pH 7 measured at 24 hrs by UPLC analysis; format: physicochemical; conditions: aqueous solution, read-out: Stability
[9] = Stability of compound in human gastrointestinal S9 fraction assessed as half life at pH 7.4 measured upto 120 mins by LC-MS/MS analysis; format: ADME, subcellular, Gastrointestinal tract
[10] = Stability of compound in rat plasma assessed as half life measured upto 4 hrs by LC-MS/MS analysis; format: ADME, cell-free
[11] = Oral bioavailability in rat assessed as prodrug conversion by measuring (2R,3R,4S,5R)-2-(4-aminopyrrolo[2,1-f][1,2,4]triazin-7-yl)-3,4-dihydroxy-5-(hydroxymethyl)tetrahydrofuran-2-carbonitrile at 6 mg/kg administered in solid form measured upto 24 hrs by LC-MS/MS analysis; format: ADME, organism-based; conditions: in vivo
[12] = Prodrug conversion in African green monkey assessed as Nucleotide triphosphate metabolite formation in lung at 60 mg/kg, po measured upto 24 hrs by LC-MS/MS analysis; format: ADME, organism-based; conditions: chlorocebus aethiops, in vivo
[13] = Oral bioavailability in dog assessed as prodrug conversion by measuring (2R,3R,4S,5R)-2-(4-aminopyrrolo[2,1-f][1,2,4]triazin-7-yl)-3,4-dihydroxy-5-(hydroxymethyl)tetrahydrofuran-2-carbonitrile at […] measured upto 24 hrs by LC-MS/MS analysis; format: ADME, organism-based, Canis lupus familiaris; conditions: in vivo
[14] = Oral bioavailability in African green monkey assessed as prodrug conversion by measuring (2R,3R,4S,5R)-2-(4-aminopyrrolo[2,1-f][1,2,4]triazin-7-yl)-3,4-dihydroxy-5-(hydroxymethyl)tetrahydrofuran-2-carbonitrile at […] measured upto 24 hrs by LC-MS/MS analysis; format: ADME, organism-based; conditions: chlorocebus sabaeus, in vivo
[15] = Oral bioavailability in African green monkey assessed as prodrug conversion by measuring (2R,3R,4S,5R)-2-(4-aminopyrrolo[2,1-f][1,2,4]triazin-7-yl)-3,4-dihydroxy-5-(hydroxymethyl)tetrahydrofuran-2-carbonitrile at 86.5 mg/kg measured upto 24 hrs by LC-MS/MS analysis; format: ADME, organism-based; conditions: chlorocebus sabaeus, in vivo
PC-3 = test: as §1; format: toxicity, cell-based; conditions: pc-3, 120 h, time 5 day
HepG2 = test: as §2; format: toxicity, cell-based; conditions: hepg2, 120 h, time 5 day
PBMC = test: Cytotoxicity against stimulated human PBMC cells assessed as reduction in cell growth measured after 5 days by CellTiter-Glo assay; format: toxicity, cell-based; conditions: pbmc, 120 h, time 5 day
[16] = Drug metabolism in human NHBE-T cells assessed as Nucleotide triphosphate metabolite formation at 10 uM measured after 48 hrs by LC-MS analysis; format: ADME, cell-based
[17] = Half life in cynomolgus monkey assessed as prodrug conversion by measuring (2R,3R,4S,5R)-2-(4-aminopyrrolo[2,1-f][1,2,4]triazin-7-yl)-3,4-dihydroxy-5-(hydroxymethyl)tetrahydrofuran-2-carbonitrile at 11.7 mg/kg, po measured upto 24 hrs by LC-MS/MS analysis; format: ADME, organism-based, Macaca fascicularis; conditions: in vivo
[18] = Cmax in dog assessed as prodrug conversion by measuring (2R,3R,4S,5R)-2-(4-aminopyrrolo[2,1-f][1,2,4]triazin-7-yl)-3,4-dihydroxy-5-(hydroxymethyl)tetrahydrofuran-2-carbonitrile at […], po measured upto 24 hrs by LC-MS/MS analysis; format: ADME, organism-based, Canis lupus familiaris; conditions: in vivo
[19] = Cmax in cynomolgus monkey assessed as prodrug conversion by measuring (2R,3R,4S,5R)-2-(4-aminopyrrolo[2,1-f][1,2,4]triazin-7-yl)-3,4-dihydroxy-5-(hydroxymethyl)tetrahydrofuran-2-carbonitrile at 11.7 mg/kg, po measured upto 24 hrs by LC-MS/MS analysis; format: ADME, organism-based, Macaca fascicularis; design: time < 24 hrs, dose 11.7 mg/kg, route po; conditions: in vivo
[20] = Cmax in African green monkey assessed as prodrug conversion by measuring (2R,3R,4S,5R)-2-(4-aminopyrrolo[2,1-f][1,2,4]triazin-7-yl)-3,4-dihydroxy-5-(hydroxymethyl)tetrahydrofuran-2-carbonitrile at 86.5 mg/kg, po measured upto 24 hrs by LC-MS/MS analysis; format: ADME, organism-based; design: dose 86.5 mg/kg, time < 24 hrs, route po; conditions: chlorocebus sabaeus, in vivo
[21] = AUC(0 to 24 hrs) in dog assessed as prodrug conversion by measuring (2R,3R,4S,5R)-2-(4-aminopyrrolo[2,1-f][1,2,4]triazin-7-yl)-3,4-dihydroxy-5-(hydroxymethyl)tetrahydrofuran-2-carbonitrile at […], po measured upto 24 hrs by LC-MS/MS analysis; format: ADME, organism-based, Canis lupus familiaris; conditions: in vivo
[22] = AUC(0 to 24 hrs) in African green monkey assessed as prodrug conversion by measuring (2R,3R,4S,5R)-2-(4-aminopyrrolo[2,1-f][1,2,4]triazin-7-yl)-3,4-dihydroxy-5-(hydroxymethyl)tetrahydrofuran-2-carbonitrile at 60 mg/kg, po measured upto 24 hrs by LC-MS/MS analysis; format: ADME, organism-based; design: time < 24 hrs, dose 60 mg/kg, route po; conditions: chlorocebus sabaeus, in vivo
SARS-CoV-2 [23] = test: Antiviral activity against SARS-CoV-2 infected in African green monkey assessed as reduction in viral load in BALF at 120 mg/kg, po qd administered for 6 days starting from 8 hrs post infection by PFA assay; format: functional, organism-based; conditions: Severe acute respiratory syndrome coronavirus 2, time 6.0 day
SARS-CoV-2 [24] = test: Antiviral activity against SARS-CoV-2 infected in African green monkey assessed as reduction in viral genomic RNA load in terminal respiratory tissue at 60 to 120 mg/kg, po qd administered for 6 days starting from 8 hrs post infection by RT-qPCR analysis; format: functional, organism-based; conditions: Severe acute respiratory syndrome coronavirus 2, dose lower 60.0 mg/kg, dose upper […], time 6.0 day
[25] = AUC(0 to 24 hrs) in African green monkey infected with SARS-CoV-2 assessed as prodrug conversion by measuring (2R,3R,4S,5R)-2-(4-aminopyrrolo[2,1-f][1,2,4]triazin-7-yl)-3,4-dihydroxy-5-(hydroxymethyl)tetrahydrofuran-2-carbonitrile at 60 mg/kg, po qd measured after 6 days by LC-MS/MS analysis; format: ADME, organism-based, Severe acute respiratory syndrome coronavirus 2; design: time 6 day, dose 60 mg/kg, route po; conditions: in vivo
[26] = Prodrug conversion in SARS-CoV-2 infected in African green monkey assessed as (2R,3R,4S,5R)-2-(4-aminopyrrolo[2,1-f][1,2,4]triazin-7-yl)-3,4-dihydroxy-5-(hydroxymethyl)tetrahydrofuran-2-carbonitrile mediated log10 reduction of genomic RNA at 60 mg/kg, po qd measured after 6 days by RT-qPCR analysis; format: ADME, organism-based, Severe acute respiratory syndrome coronavirus 2; conditions: in vivo, time 6 day

## CCC(CC)COC(=O)[C@H](C)N[P@](=O)(OC[C@H]1O[C@@](C#N)(c2ccc3c(N)ncnn23)[C@H](O)[C@@H]1O)Oc1ccccc1
[1]
  CC50 at 120 h: 1.4 µM
[2]
  CC50 at 120 h: 11.1 µM
[3]
  Cmax: 1.23 µM
[4]
  log(activity): -1.38

## N#C[C@@]1(c2ccc3c(N)ncnn23)O[C@H](CO)[C@@H](O)[C@H]1O [GS-441524]
[5]
  AUC: 2.5 µM·h
[6]
  AUC: 1.67 µM·h

## CC(C)C(=O)OC[C@H]1O[C@@](C#N)(c2ccc3c(N)ncnn23)[C@H](O)[C@@H]1O [OBELDESIVIR]
[7]
  remaining at 24 h: ≥ 94%
[8]
  remaining at 24 h: ≥ 96%
[9]
  half-life: < 2 min
[10]
  half-life: < 3 min
[11]
  F: 90%
[12]
  Drug metabolism: 0.31 nmol/g
[13]
  F: 93%
[14]
  F: 31%
[15]
  F: 27%
PC-3
  CC50: > 100 µM
HepG2
  CC50: 71 µM
PBMC
  CC50: > 100 µM
[16]
  Drug metabolism: Metabolite_Detected
[17]
  t1/2: 157 min
[18]
  Cmax: 57.8 µM
[19]
  Cmax: 7.57 µM
[20]
  Cmax: 19.6 µM
[21]
  AUC: 202 µM·h
[22]
  AUC: 129 µM·h
SARS-CoV-2 [23]
  Activity: Active
SARS-CoV-2 [24]
  Activity: Active
[25]
  AUC: 111 µM·h
[26]
  log(activity): -1.41
